Each structure is given as a SMILES string. Values after ≈ are worked out from the molar mass of the structure shown.

The term solubility denotes how much of the substance goes into solution per volume. Broadly, the IC50 is the concentration that inhibits the measured activity by half. A high value points to weaker potency.

Data set [1] in a line: Thermodynamic aqueous solubility study by HPLC (Example 5). The note with it: thermodynamic from solid. The format is physicochemical. The text has this:
Quantitation is done by HPLC with reference to a standard calibration curve. […] If there is sufficient solid remaining, the XRPD is collected.

Data set [2] can be described thus: Tolerability of compounds in healthy mice (total body weight). The format is in vivo, DBA/1J mice. The conditions noted are these: 100 mg/kg/d, po, up to two weeks. How it is done: This protocol is designed to assess the tolerability of the compounds of the invention in healthy DBA/1J mice to determine the “therapeutic window” as defined by the dosing range between efficacious (mouse therapeutic Collagen-Induced Arthritis model) and toxic doses.
DBA/1J […] mice are used (CERJ (France)), the mice are 10-11 weeks old, and have a body weight of approx 20g.
Compounds are prepared for a dosing regimen of 100 mg/kg/d, po, free base, in a standard volume of injection of 0.1 mL/10 g of mice (equivalent to 10 mg/1 mL). For solution preparations, compounds are dissolved in 0.5% methyl-cellulose and 1% DMSO supplemented with 1 molar equivalent of methanesulfonic acid to ensure full dissolution, once a week.
Groups are randomized based on body weight and treated for up to two weeks. Each group contained 5 mice and received either test compound at 100 mg/kg, a comparison compound at 100 mg/kg/d (Compound A) or vehicle on a daily basis in a dosing volume of 200 μL per mouse.
Potential drug toxicity is monitored by observation every day and by recording body weights three times a week for weight loss. All statistical analyses are performed using Student's t test.
To assess the general tolerability of the treatments, the total body weight is followed throughout the course of the study.

The test system of data set [3] is MMP13 expression in SW1353 cells. Put plainly: IL-1/OSM driven MMP13 expression in SW1353 cells (MMP13 ELISA). The conditions noted are these: Homo sapiens, IL-1β and OSM, 48 hr. The format is cell-based. How it is done: A 384 well format ELISA for measurement of MMP13 was developed. Various primary antibodies are tested, as well as various ELISA protocols. The following protocol is developed and validated to measure MMP13 levels in supernatant of cell cultures in 384 well plates.
Black maxisorb 384 well plates (Nunc 460518) are coated with 35 μL of a buffered solution containing 1.5 μg/mL anti-MMP13 antibody MAB511 (R&D systems). The antibody is diluted in carbonate-bicarbonate coating buffer (1.59 g Na2CO3 (Sigma S-7795) and 2.93 g NaHCO3 (Sigma S-5761) in 1 L MilliQ water, adjusted to pH 9.6). […] Substrate solution is prepared as follows: OmniMMP Fluorescent substrate (Biomol P-126) stock solution (2 mM in DMSO, stored at −20° C.) is diluted in 1× OmniMMP buffer (10× OmniMMP buffer: 500 mM Hepes (Sigma H4034), 100 mM CaCl2 (Sigma C5080), 0.5% Brij35 (Sigma 430 AG-6; adjusted to pH 7.0) to a final concentration of 0.01 mM. After an overnight incubation at 37° C., the active MMP13 in the sample has cleaved the substrate and released fluorescence. Readout is performed on the EnVision (Perkin Elmer) using 320 nm excitation/405 nm emission filters. […]
(In general: An ELISA detects its analyte on a solid surface through an enzyme-linked reagent.)

The nature of data set [4]: Aqueous solubility determination (Example 4). The format is physicochemical. How it is done:
Each salt is suspended in water and shaken for 24 h at 22° C. and 400 rpm. The resulting suspensions are filtered (0.2-μm filter). The obtained solids are analyzed by FT Raman. The pH of the filtrate is measured, and the concentration of the free base is determined by HPLC.

Take `CC(C)N1C[C@@H]2C[C@H]1CN2c1ccc(Nc2ncc(-c3coc(C(N)=O)c3)n3ncnc23)cc1` [Compound 1, 4-{8-[4-((1S,4S)-5-Isopropyl-2,5-diaza-bicyclo[2.2.1]hept-2-yl)-phenylamino]-[1,2,4]triazolo[1,5-a]pyrazin-5-yl}-furan-2-carboxamide]: the solubility turned out to be 300 µg/mL (≈ 654 µM) in data set [1] (buffer pH 2.0, pH 2, aqueous buffer); 10 µg/mL (≈ 21.8 µM) in data set [1] (buffer pH 7.4, pH 7.4, aqueous buffer); 10 µg/mL (≈ 21.8 µM) in data set [1] (pure water, water). In addition, the “weight of the animals compared to the vehicle” value in data set [2] is on record as “no statistically significant difference”. For the same compound, in data set [3], the IC50 was 50 to 500 nM. Further, in data set [4] (filtrate of the aqueous suspension after 24 h), the “Filtrate pH” value came to 6.9. Moreover, the solubility at 24 h in data set [4] (thermodynamic from solid, water, shaken 24 h at 22° C., free base concentration by HPLC, read-out: Measured solubility) was found to be 70 µg/mL (≈ 153 µM).

Values taken from patent US20110118269A1, “FUSED PYRAZINE COMPOUNDS AS THEIR SALTS, USEFUL FOR THE TREATMENT OF DEGENERATIVE AND INFLAMMATORY DISEASES” (priority 2009, published 2011).
